Like-named read-outs stand apart in the source and are kept apart here.
Assay: Measurement of LogP values by HPLC on reversed phase columns (EEC directive 79/831 Annex V.A8)
Format: physicochemical
Conditions: for chromatographic logP: reversed-phase HPLC column (Agilent Zorbax Eclipse C18)
Method: Measurement of LogP values was performed according to EEC directive 79/831 Annex V.A8 by HPLC (High Performance Liquid Chromatography) on reversed phase columns (Agilent Zorbax Eclipse C18) with the following methods: • ^[a] LogP value is determined by measurement of LC-UV and/or MS and/or ELS, in an acidic range, with 0.1% formic acid in water and acetonitrile as eluent (linear gradient from 10% acetonitrile to 95% acetonitrile). • ^[b] LogP value is determined by measurement of LC-UV and/or MS and/or ELS, in a neutral range, with 0.001 molar ammonium acetate solution in water and acetonitrile as eluent (linear gradient from 10% acetonitrile to 95% acetonitrile). If more than one LogP value is available within the same method, all the values are given and separated by "+". Calibration was done with straight-chain alkan2-ones (with 3 to 16 carbon atoms) with known LogP values (measurement of LogP values using retention times with linear interpolation between successive alkanones). Lambda-max-values were determined using UV-spectra from 200 nm to 400 nm and the peak values of the chromatographic signals.

[1] = [Method A] as printed in the preparation examples (taken as method [a], acidic range)
[2] = method [a]: acidic range, 0.1% formic acid in water and acetonitrile as eluent (linear gradient 10% to 95% acetonitrile)

OCc1ccc(-c2noc(C(F)(F)Cl)n2)cc1F [VIII"-a, (4-{5-[chloro(difluoro)methyl]-1,2,4-oxadiazol-3-yl}-2-fluorophenyl)methanol]
chromatographic logP [1]: 2.98
chromatographic logP [2]: 2.98

Cc1ccc(C(N)=NO)s1 [N'-hydroxy-5-methylthiophene-2-carboximidamide]
chromatographic logP ([Method B] as printed in the preparation examples (taken as method [b], neutral range, 0.001 molar ammonium acetate)): 1.17

Cc1ccc(-c2noc(C(F)(F)Cl)n2)cc1 [X-b, 3-(4-Methylphenyl)-5-(chlorodifluoromethyl)-1,2,4-oxadiazole]
chromatographic logP [1]: 4.55
chromatographic logP [2]: 4.55

CONCc1ccc(-c2noc(C(F)(F)Cl)n2)cc1 [V-a, 1-[4-[5-[Chloro(difluoro)methyl]-1.2.4-oxadiazol-3-yl]phenyl]-N-methoxy-methanamine]
chromatographic logP [1]: 3.09
chromatographic logP [2]: 3.09

C#Cc1ccn(Cc2ccc(-c3noc(C(F)(F)Cl)n3)cc2)n1 [1.03, 5-[chloro(difluoro)methyl]-3-{4-[(3-ethynyl-1H-pyrazol-1-yl)methyl]phenyl}-1,2,4-oxadiazole]
chromatographic logP [1]: 3.31
chromatographic logP [2]: 3.81

CONC(=O)N(Cc1ccc(-c2noc(C(F)(F)Cl)n2)cc1)OC [1.04, 1-(4-{5-[Chloro(difluoro)methyl]-1,2,4-oxadiazol-3-yl}benzyl)-1,3-dimethoxyurea]
chromatographic logP [1]: 2.92
chromatographic logP [2]: 2.92

CCOC(=O)c1cnn(Cc2ccc(-c3noc(C(F)(F)Cl)n3)cc2F)c1 [1.01, ethyl 1-(4-{5-[chloro(difluoro)methyl]-1,2,4-oxadiazol-3-yl}-2-fluorobenzyl)-1H-pyrazole-4-carboxytate]
LogP: 3.98^[a]

CCOC(=O)c1cnn(Cc2ccc(-c3noc(C(F)(F)Cl)n3)s2)c1 [I.02]
LogP [1]: 3.81

FC(F)(Cl)c1nc(-c2ccc(CBr)s2)no1 [VIII'-b, 3-[5-(bromomethyl)-2-thienyl]-5-[chloro(difluoro)methyl]-1,2,4-oxadiazole]
chromatographic logP [1]: 4.2
chromatographic logP [2]: 4.2

COC(C)C(=O)N(Cc1ccc(-c2noc(C(F)(F)Cl)n2)cc1)OC (stereo not shown) [1.05, N-(4-{5-[chloro(difluoro)methyl]-1,2,4-oxadiazol-3-yl}benzyl)-N,2-dimethoxypropan-amide]
chromatographic logP [1]: 3.31
chromatographic logP [2]: 3.31

FC(F)(Cl)c1nc(-c2ccc(CBr)cc2)no1 [VIII'-c, 3-[4-(Bromomethyl)phenyl]-5-(chlorodifluoromethyl)-1,2,4-oxadiazole]
chromatographic logP [1]: 4.48
chromatographic logP [2]: 4.48

Cc1ccc(-c2noc(C(F)(F)Cl)n2)s1 [X-a, 5-[chloro(difluoro)methyl]-3-(5-methyl-2-thienyl)-1,2,4-oxadiazole]
chromatographic logP [1]: 4.18
chromatographic logP [2]: 4.18

Fc1cc(-c2noc(C(F)(F)Cl)n2)ccc1CBr [VIII'-a, 3-[4-(bromomethyl)-3-fluorophenyl]-5-[chloro(difluoro)methyl]-1,2,4-oxadiazole]
chromatographic logP [1]: 4.66
chromatographic logP [2]: 4.66

CCOC(=O)c1cnn(Cc2ccc(-c3noc(C(F)(F)Cl)n3)cc2F)c1 [I.01]
LogP [1]: 3.98

CCOC(=O)c1cnn(Cc2ccc(-c3noc(C(F)(F)Cl)n3)s2)c1 [1.02, ethyl 1-[(5-{5-[chloro(difluoro)methyl]-1,2,4-oxadiazol-3-yl}-2-thienyl)methyl]-1H-pyrazole-4-carboxylate]
chromatographic logP [2]: 3.81

From patent publication EP4295688A1, “ACTIVE COMPOUND COMBINATION” (Bayer Aktiengesellschaft, priority 2022, dated 2023)
